SMILES strings stand for the structures.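 How tested: cells in 96-well plates exposed to compound for 48 hours at five concentrations. GI50 is the concentration that inhibits growth by half.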 The source made the active and inactive calls. No stated cut-off is given here; in the data, active = GI50 up to about 1.1 µM and inactive = higher.

Holding throughout (assay): growth of human tumour cells (NCI), 48 h
The test system of assay [1] is SF-268.
The subject of assay [2] is SF-539.
Assay [3] concerns NCI-H226.
In assay [4] the test system is SR.
Assay [5] concerns T47D.
Assay [6] deals with NCI-H522.
Assay [7] concerns NCI-H23.
Assay [8] deals with HL-60.
Assay [9] has as its system HCT-116.
For assay [10], the system named is OVCAR-8.
Assay [11] concerns Hs-578T.
Assay [12] relates to SK-MEL-28.
Assay [13] concerns LOX IMVI.
The subject of assay [14] is MDA-N.
The subject of assay [15] is UACC-257.
In assay [16] the test system is UO-31.
Assay [17] concerns DU-145.
Assay [18] deals with A549.
Assay [19] concerns 786-0.
The test system of assay [20] is CCRF-CEM.

Consider `O=[N+]([O-])C(=C(Cl)Cl)C(Cl)=C(Cl)Cl`, for which the GI50 in assay [1] is 0.701 µM (active); in assay [2] it was 1.45 µM (inactive); in [3], 0.834 µM (active); in assay [4], 0.13 µM (active); in [5], 0.037 µM (active); in assay [6], < 0.01 µM (active). Further, the GI50 was 0.265 µM (active) in assay [7]; < 0.0194 µM (active) in assay [8]; 0.0929 µM (active) in assay [9]; 0.619 µM (active) in [10]; 0.485 µM (active) in [11]; 0.105 µM (active) in [12]. Besides, the GI50 in [13] is < 0.0117 µM (active); in [14], 0.206 µM (active); in [15], 0.166 µM (active); in [16] it was 0.836 µM (active); in assay [17], 8.85 µM (inactive); in assay [18], 6.44 µM (inactive). In addition, the values for the GI50 in assay [19] and in assay [20] were 0.0895 µM (active) and < 0.01 µM (active), respectively.
With `Cc1ccc2[nH]c3c(c2c1)C1CCC(C(C)(C)C)CC1C1C(=O)N(c2ccc4c(c2)OCO4)C(=O)C31` (stereo not given), the GI50 was 2.03 µM (inactive) in assay [1]; 1.35 µM (inactive) in assay [2]; 2.84 µM (inactive) in [3]; 1.91 µM (inactive) in [4]; 2.06 µM (inactive) in [5]; 2.67 µM (inactive) in [6]. Further, the GI50 in [7] is 6.55 µM (inactive); in [8], 2.72 µM (inactive); in assay [9], 2.34 µM (inactive); in assay [10], 1.97 µM (inactive); in assay [11], 1.55 µM (inactive); in assay [12] it was 5.61 µM (inactive). The GI50 in assay [13] is 2.4 µM (inactive); in assay [14], 5.41 µM (inactive); in assay [15] it was 9.68 µM (inactive); in assay [16] it was 2.55 µM (inactive); in [17], 2.99 µM (inactive); in [18] it was 2.31 µM (inactive). Besides, the results for the GI50 in [19] and in assay [20] were 1.63 µM (inactive) and 1.82 µM (inactive), respectively.
For `O=C(/C=C/c1ccco1)c1cccc(C(=O)/C=C/c2ccco2)n1`, the GI50 in [1] is 5.24 µM (inactive); in [2] it was 5.01 µM (inactive); in [3], > 100 µM (inactive); in assay [4], 1.37 µM (inactive); in [5], 6.17 µM (inactive); in assay [6], 3.9 µM (inactive). Besides, the GI50 was 11.7 µM (inactive) in assay [7]; 0.0409 µM (active) in [8]; 2.78 µM (inactive) in assay [9]; 2.69 µM (inactive) in assay [10]; 4.4 µM (inactive) in assay [11]; 15.4 µM (inactive) in [12]. In addition, the GI50 in [13] was 1.78 µM (inactive); in assay [14] it was 10.7 µM (inactive); in assay [15], 60.7 µM (inactive); in [16] it was 6.43 µM (inactive); in assay [17] it was 24.9 µM (inactive); in assay [18], 27.1 µM (inactive). The GI50 in [19] was 3.4 µM (inactive); in [20], 0.71 µM (active).
Consider `CCc1nc(N)nc(N)c1-c1ccc(Cl)cc1` [PYRIMETHAMINE], for which the GI50 was 9.77 µM (inactive) in [1]; 20.7 µM (inactive) in assay [2]; 42.6 µM (inactive) in assay [3]; 4.24 µM (inactive) in [4]; 32.7 µM (inactive) in assay [5]; 22.5 µM (inactive) in assay [6]. In addition, the GI50 in assay [7] is 5.79 µM (inactive); in assay [8] it was 2.38 µM (inactive); in assay [9], 6.14 µM (inactive); in assay [10], 5.79 µM (inactive); in assay [11], > 58.2 µM (inactive); in [12], > 66.7 µM (inactive). In addition, the GI50 is 6.19 µM (inactive) in assay [13]; 4.83 µM (inactive) in assay [14]; 12.5 µM (inactive) in assay [15]; 16.4 µM (inactive) in assay [16]; 18.7 µM (inactive) in [17]; 1.47 µM (inactive) in [18]. Moreover, the GI50 in [19] was 4.59 µM (inactive); in [20], 3.33 µM (inactive).
With `O=C(O)c1ccc(Nc2cnc3cc(C(F)(F)F)ccc3n2)cc1`, the GI50 in assay [1] is > 100 µM (inactive); in assay [2], 78 µM (inactive); in assay [3], 71.3 µM (inactive); in [4] it was 56.1 µM (inactive); in assay [5], 20.9 µM (inactive); in assay [6], 25.8 µM (inactive). For the same molecule, the GI50 in assay [7] was 46.5 µM (inactive); in assay [8], 22.8 µM (inactive); in assay [9] it was 54.7 µM (inactive); in assay [10], 52.1 µM (inactive); in assay [11] it was 40 µM (inactive); in assay [12], 42.4 µM (inactive). Besides, the GI50 is 35.8 µM (inactive) in assay [13]; 53.8 µM (inactive) in assay [14]; 43.7 µM (inactive) in [15]; 43.2 µM (inactive) in assay [16]; 58.5 µM (inactive) in assay [17]; 42 µM (inactive) in assay [18]. The GI50 in assay [19] was 67.6 µM (inactive); in assay [20] it was 57.9 µM (inactive).
On to `C=CCOC1(CC=C)C(=O)OC2C(O)COC21O` (stereo not given), for which the GI50 in assay [1], in assay [2], in [3], in [4], in assay [5] and in [6] was > 100 µM (inactive) each time. Besides, the GI50 in [7], in assay [8], in [9], in [10], in assay [11] and in [12] was > 100 µM (inactive) each time. Besides, the GI50 in assay [13], in [14], in [15], in [16], in [17] and in [18] was > 100 µM (inactive) throughout. For the same molecule, the GI50 in assay [19] and in assay [20] was > 100 µM (inactive) throughout.
Regarding `N#Cc1nc(Sc2cnsn2)c(Sc2cnsn2)nc1C#N`, the GI50 was 19.4 µM (inactive) in assay [1]; 19.4 µM (inactive) in assay [2]; 19.9 µM (inactive) in [3]; 8.91 µM (inactive) in assay [4]; 6.25 µM (inactive) in [5]; 3.93 µM (inactive) in assay [6]. For the same molecule, the GI50 in assay [7] was 21.6 µM (inactive); in assay [8], 1.95 µM (inactive); in [9] it was 6.65 µM (inactive); in assay [10], 24.5 µM (inactive); in assay [11] it was 19.1 µM (inactive); in assay [12] it was 22.6 µM (inactive). In addition, the GI50 was 17.9 µM (inactive) in assay [13]; 20.4 µM (inactive) in assay [14]; 13.6 µM (inactive) in [15]; 9.44 µM (inactive) in [16]; 17.1 µM (inactive) in assay [17]; 28.6 µM (inactive) in [18]. The GI50 in [19] was 6.78 µM (inactive); in assay [20], 0.426 µM (active).
For `Cc1ccccc1C1=C/C(=C(\SS/C(C(=O)c2ccc(OCC(=O)O)c(Cl)c2Cl)=C2\C=C(c3ccccc3C)SS2)C(=O)c2ccc(OCC(=O)O)c(Cl)c2Cl)SS1`, the GI50 is 18 µM (inactive) in [1]; 17.2 µM (inactive) in assay [2]; 17.9 µM (inactive) in assay [3]; 24.1 µM (inactive) in assay [4]; 5.16 µM (inactive) in assay [5]; 4.09 µM (inactive) in [6]. Moreover, the GI50 in assay [7] was 21.5 µM (inactive); in [8] it was 2.96 µM (inactive); in assay [9], 21.7 µM (inactive); in assay [10], 26.3 µM (inactive); in assay [11] it was 21.2 µM (inactive); in [12], 26.4 µM (inactive). For the same molecule, the GI50 in assay [13] is 6.82 µM (inactive); in assay [14], 34.1 µM (inactive); in assay [15], 29.4 µM (inactive); in assay [16], 20.9 µM (inactive); in [17], 39.4 µM (inactive); in [18], 46.9 µM (inactive). Besides, the GI50 in assay [19] was 33.3 µM (inactive); in assay [20], 12.5 µM (inactive).
For `CC[N+]1(C)CCC(O)(/C=C/c2ccccc2)C(C(=O)/C=C/c2ccccc2)C1` (stereo not given), the GI50 was 15.6 µM (inactive) in [1]; 7.43 µM (inactive) in [2]; 14.7 µM (inactive) in [3]; 2.34 µM (inactive) in [4]; 15.3 µM (inactive) in assay [5]; 1.99 µM (inactive) in assay [6]. Moreover, the GI50 in assay [7] was 15.2 µM (inactive); in assay [8], 2.31 µM (inactive); in assay [9] it was 6 µM (inactive); in [10], 9.1 µM (inactive); in assay [11], 28.4 µM (inactive); in assay [12] it was 7.4 µM (inactive). For the same molecule, the GI50 in assay [13] was 2.79 µM (inactive); in assay [14], 6.11 µM (inactive); in assay [15], 10.2 µM (inactive); in [16] it was 15.6 µM (inactive); in assay [17] it was 19.1 µM (inactive); in assay [18] it was 20.3 µM (inactive). Moreover, the GI50 in assay [19] was 4.02 µM (inactive); in assay [20] it was 1.94 µM (inactive).
Take `COC12OC3CC4(C)C(=CC3OC(OC(C)C1O)C2O)CCC1C4CCC2(C)C(c3ccc(=O)oc3)CCC12O` (stereo not given): the GI50 was 0.00105 µM (active) in [1]; 0.00126 µM (active) in [2]; 0.00246 µM (active) in [3]; 0.0014 µM (active) in assay [4]; 0.00227 µM (active) in [5]; < 0.001 µM (active) in assay [6]. Moreover, the GI50 in assay [7] is 0.00125 µM (active); in assay [8] it was 0.00139 µM (active); in [9], 0.00136 µM (active); in assay [10] it was 0.00144 µM (active); in [11], < 0.001 µM (active); in assay [12] it was 0.00385 µM (active). The GI50 in assay [13] is 0.00137 µM (active); in [14], 0.00215 µM (active); in [15], 0.00283 µM (active); in assay [16] it was 0.0017 µM (active); in assay [17], 0.00129 µM (active); in assay [18], 0.00119 µM (active). The GI50 is 0.00134 µM (active) in [19] and 0.00125 µM (active) in assay [20].

For the origin of these results see ChEMBL document CHEMBL1201862, “PubChem BioAssay data set” (2004).
